Laboratory results as given in patent US20110224247A1, “AZAISOQUINOLINONE DERIVATIVES AS NK3 ANTAGONISTS” (H. LUNDBECK A/S, priority 2010, published 2011).
Values belong to the molecule of their own block, whether it stands above or below them.

Key:
human NK3 receptor = biological target: T1, human NK3 receptor (Homo sapiens, UniProt P29371); assay: NK3 receptor binding assay; conditions: filter-based competition binding vs ~0.05 nM 3H-AE93103, membranes of BHK cells expressing human NK3; Ki by Cheng Prusoff; read-out: Affinity (Ki/nM)
T1 construct: expressed in transfected cells; membranes prepared
T1 sequence (P29371 1-465): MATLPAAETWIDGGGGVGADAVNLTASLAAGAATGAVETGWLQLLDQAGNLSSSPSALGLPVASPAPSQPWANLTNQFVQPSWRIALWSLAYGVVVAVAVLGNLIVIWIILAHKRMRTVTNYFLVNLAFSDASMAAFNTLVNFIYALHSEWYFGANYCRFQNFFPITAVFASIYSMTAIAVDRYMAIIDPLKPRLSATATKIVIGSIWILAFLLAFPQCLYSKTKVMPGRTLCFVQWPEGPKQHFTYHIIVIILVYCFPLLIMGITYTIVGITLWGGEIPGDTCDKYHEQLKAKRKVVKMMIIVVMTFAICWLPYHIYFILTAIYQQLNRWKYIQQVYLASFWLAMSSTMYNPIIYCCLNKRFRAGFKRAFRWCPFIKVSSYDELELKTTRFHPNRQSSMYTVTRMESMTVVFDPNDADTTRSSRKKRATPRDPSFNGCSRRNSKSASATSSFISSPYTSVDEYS
Protocol: Membranepreparation: BHK cells stably expressing the human NK3 receptor were seeded in harvesting plates in Dulbeccos MEM containing GlutaMax (862 mg/l), 1 mM sodium pyruvate, 10% fetal calf serum, 1% Pen/Strep, 1 mg/ml G418 and were grown at 34° C. in a humidified atmosphere containing 10% CO2. To increase receptor expression, 10 μM trichotatin A was added to the media 24 hours before harvest of the cells at a confluency of app 90%. Prior to the harvesting, the cells were washed twice with PBS without Mg^2+ and Ca^2+ and subsequently scrapped of in 10 ml PBS pr harvesting plate. The cells suspension were centrifuged at 1500×G in three minutes before resuspension in 15 mM Tris-HCl pH 7,5 buffer containing 2 mM MgCl2; 0,3 mM EDTA and 1 mM EGTA (buffer A). The cell suspention was homogenised and subsequently centrifuged at 40000×G in 30 minutes. The membrane-pellet was resuspended in buffer A containing 250 mM sucrose, alliquoted and stored at −80° C.
Affinity assay description: The assay is performed as a filter-based competition-binding in a 50 mM Tris pH 7.4 assay buffer containing 120 mM NaCl and 3 mM MnCl2. App 0.05 nM ^3H-AE93103 was mixed with test compounds before addition of 0.15 μg of a homogenised NK3 membrane preparation in a total volume of 300 μl. The assay plate is incubated for 90 min at RT before content of the wells is transferred using a cell-harvester to GF/C filter plates, which has been pretreated with 0.1% PEI. The filter is washed 3 times with 1 ml an ice-cold 50 mM Tris buffer, pH 7,4. The filter is dried and added scintillation liquid before the plate is counted in a topcounter 5 minutes pr well.
The total binding, which comprised less than 10% of added radioligand, was defined using assay buffer whereas the non-specific binding was defined in the presence of 1 μM SR142801. The non-specific binding constituted ˜10% of the total binding. Data points are expressed in percent of the specific binding of ^3H-AE93103 and the […] (concentration causing 50% inhibition of ^3H-AE93103 specific binding) are determined by non-linear regression analysis using a sigmoidal variable slope curve fitting.

[1] = cited from earlier work
[2] = cited from earlier work; remark: listed apart in the source
[3] = in vivo; cited from earlier work

- Ki (human NK3 receptor): 58 nM
Compound: CCNn1c(C)c(C(=O)N[C@H](c2cccc(F)c2)C2CCC2)c2cnccc2c1=O [Example 1a, 2-Ethylamino-3-methyl-1-oxo-1,2-dihydro-[2,6]naphthyridine-4-carboxylic acid [(S)-cyclobutyl-(3-fluoro-phenyl)-methyl]-amide]

- Ki (human NK3 receptor): 720 nM
Compound: CCCNn1c(C)c(C(=O)N[C@H](c2ccc(F)cc2)C2CC2)c2cnccc2c1=O [Example 1b, 3-Methyl-1-oxo-2-propylamino-1,2-dihydro-[2,6]naphthyridine-4-carboxylic acid [(S)-cyclopropyl-(4-fluoro-phenyl)-methyl]-amide]

- Ki (human NK3 receptor): 540 nM
Compound: CCCNn1c(C)c(C(=O)N[C@H](c2cccc(Cl)c2)C2CC2)c2cnccc2c1=O [Example 1c, 3-Methyl-1-oxo-2-propylamino-1,2-dihydro-[2,6]naphthyridine-4-carboxylic acid [(S)-(3-chloro-phenyl)-cyclopropyl-methyl]-amide]

- Ki (human NK3 receptor): 160 nM
Compound: CCCNn1c(C)c(C(=O)NC(c2ccccc2F)C2CCC2)c2cnccc2c1=O (stereo not drawn) [Example 1d, 3-Methyl-1-oxo-2-propylamino-1,2-dihydro-[2,6]naphthyridine-4-carboxylic acid [cyclobutyl-(2-fluoro-phenyl)-methyl]-amide]

- Ki (human NK3 receptor): 33 nM
Compound: CCCNn1c(C)c(C(=O)N[C@H](c2cccc(F)c2)C2CCC2)c2cnccc2c1=O [Example 1e, 3-Methyl-1-oxo-2-propylamino-1,2-dihydro-[2,6]naphthyridine-4-carboxylic acid [(S)-cyclobutyl-(3-fluoro-phenyl)-methyl]-amide]

- Ki (human NK3 receptor): 430 nM
Compound: CCCNn1c(C)c(C(=O)N[C@@H](CC)c2ccccc2)c2cnccc2c1=O [Example 1g, 3-Methyl-1-oxo-2-propylamino-1,2-dihydro-[2,6]naphthyridine-4-carboxylic acid ((S)-1-phenyl-propyl)-amide]

- Ki (human NK3 receptor): 91 nM
Compound: CCNn1c(C)c(C(=O)N[C@H](c2cccc(F)c2)C2CCC2)c2ncccc2c1=O [Example 2a, 6-Ethylamino-7-methyl-5-oxo-5,6-dihydro-[1,6]naphthyridine-8-carboxylic acid [(S)-cyclobutyl-(3-fluoro-phenyl)-methyl]-amide]

- Ki (human NK3 receptor): 110 nM
Compound: CCNn1c(C)c(C(=O)N[C@H](c2cccc(F)c2)C2CCC2)c2ccncc2c1=O [Example 3a, 2-Ethylamino-3-methyl-1-oxo-1,2-dihydro-2,7-naphthyridine-4-carboxylic acid [(S)-cyclobutyl-(3-fluoro-phenyl)-methyl]-amide]

Compound: CC(=O)N(C)C1(c2ccccc2)CCN(CCC[C@]2(c3ccc(Cl)c(Cl)c3)CCCN(C(=O)c3ccccc3)C2)CC1 [Osanetant]
- Effect in clinical trials, in particular on positive symptoms of psychosis ([1]; delusions, hallucinations and paranoia): superior to placebo
- solubility [2]: poor
- bioavailability [3]: poor
- blood-brain barrier penetration [3]: poor
- clearance [3]: relatively high

Compound: CC[C@H](NC(=O)c1c(O)c(-c2ccccc2)nc2ccccc12)c1ccccc1 [talnetant]
- Effect on cognitive behaviour of schizophrenics in clinical trials ([1]; schizophrenics): ameliorate the cognitive behaviour
- solubility [2]: poor
- bioavailability [3]: poor
- blood-brain barrier penetration [3]: poor
- clearance [3]: relatively high
